Assays:
H9 [1] = experiment: Concentration required to inhibit uninfected H9 cell growth; type: functional, cell-based; conditions: Homo sapiens
[2] = Therapeutic index for inhibition of uninfected H9 cell growth to that of inhibition of HIV-1 replication in H9 lymphocyte cells; […]; type: cell-based; conditions: human
[3] = Therapeutic index for inhibition of uninfected H9 cell growth to that of inhibition of HIV-1 replication in H9 lymphocyte cells; Precipitated in the media; type: cell-based; conditions: human
H9 [4] = experiment: Concentration required to inhibit HIV-1 replication in H9 lymphocyte cells; type: functional, cell-based; conditions: Homo sapiens
[5] = Therapeutic index for inhibition of uninfected H9 cell growth to that of inhibition of HIV-1 replication in H9 lymphocyte cells.; type: cell-based; conditions: human, H9 lymphocyte cells (uninfected and HIV-1 infected); read-out: TI
[6] = Therapeutic index for inhibition of uninfected H9 cell growth to that of inhibition of HIV-1 replication in H9 lymphocyte cells;Did not dissolve; type: cell-based; conditions: human

| SMILES | IC50 (H9 [1]) [µM] | TI [2] | selectivity ratio [5] | further results |
| --- | --- | --- | --- | --- |
| Cc1cc(O)nc2cc(N)ccc12 | 104 | Not Active |  |  |
| Cc1cc(=O)n(C(=O)OC(C)(C)C)c2c3c(ccc12)OC(C)(C)C=C3 |  |  |  | TI [3]: Precipitated |
| Cc1c(O)nc2c3c(ccc2c1C)OC(C)(C)[C@H](OC(=O)C12CCC(C)(C(=O)O1)C2(C)C)[C@@H]3OC(=O)C12CCC(C)(C(=O)O1)C2(C)C (stereo partly specified) | 42 |  | 9100 | EC50 (H9 [4]): 0.0046 µM |
| CC1(C)Oc2ccc3ccc(=O)oc3c2[C@@H](OC(=O)C23CCC(C)(C(=O)O2)C3(C)C)[C@H]1OC(=O)C12CCC(C)(C(=O)O1)C2(C)C (stereo partly specified) |  |  | 137000 |  |
| Cc1cc(=O)n(C(=O)OC(C)(C)C)c2c3c(ccc12)OC(C)(C)[C@H](O)[C@@H]3O |  |  |  | TI [3]: Precipitated |
| Cc1cc(O)nc2c3c(ccc12)OC(C)(C)C=C3 |  |  |  | TI [6]: Did not dissolve |
| Cc1cc(O)nc2c3c(ccc12)OC(C)(C)[C@H](OC(=O)C12CCC(C)(C(=O)O1)C2(C)C)[C@@H]3OC(=O)C12CCC(C)(C(=O)O1)C2(C)C (stereo partly specified) | 28 |  | 119000 | EC50 (H9 [4]): 0.00024 µM |
| Cc1cc(O)nc2cc(O)ccc12 | 125 | Not Active |  |  |
| Cc1cc(=O)n(C(=O)OC(C)(C)C)c2c3c(ccc12)OC(C)(C)[C@H](OC(=O)C12CCC(C)(C(=O)O1)C2(C)C)[C@@H]3OC(=O)C12CCC(C)(C(=O)O1)C2(C)C (stereo partly specified) | > 157 | Not Active |  |  |

— ChEMBL document CHEMBL1132864, “Anti-AIDS agents part 41: synthesis and anti-HIV activity of 3',4'-di-o-(-)-camphanoyl-(+)-cis-khellactone (DCK) lactam analogues” (Bioorg Med Chem Lett, 2000)
